# Experimental data taken from patent US12344820B2, “Laundry detergent and fabric care compositions with sulfonamides for odor removal from fabrics” (Rem Brands, Inc., priority 2019, dated 2025).
# Experiment: Soaking of sweaty polyester workout shirts in BENZ solution, subjective scent rating by a group of people
# Settings: for Post Dry average scent rating: 30 min soak, after shirt dried; for Post Wet average scent rating: after 30 minutes of soaking; for Pre Soak average scent rating: shirt smelled before soaking (baseline)
# Excerpt: Polyester workout shirts were worn without deodorant during a one-hour workout to induce copious amounts of sweat. The shirts were kept in sealed plastic bags for several days, mimicking normal wash schedule delay. The shirts were then soaked in buckets containing various amounts of N-chloro-4-carboxybenzenesulfonamide (BENZ). The bucket contained either zero (control), 0.02 wt %, 0.04 wt %, or 0.15 wt % of the BENZ (e.g. 0.02 grams BENZ per 100 grams of water, w/w). No agitation, spinning, or moving of any kind occurred during the soaking. After 30 minutes of soaking, the shirts were wrung out and laid to dry.
# The shirts were smelled before soaking (Pre Soak), after the 30 minutes of soaking (Post Wet), and after they were dried (Post Dry) by a group of people who subjectively rated the scent of the shirt on a scale of 0 (no smell) to 10 (extremely smelly).
# [1] = 0.02 wt % BENZ in water, scale 0 to 10
# [2] = 0.04 wt % BENZ in water, scale 0 to 10
# [3] = 0.15 wt % BENZ in water, scale 0 to 10
smiles,measurement,setting,value
"O=C(O)c1ccc(S(=O)(=O)NCl)cc1 [BENZ, N-chloro-4-carboxybenzenesulfonamide]",Post Dry average scent rating,[1],5
same,Post Wet average scent rating,[1],5
same,Water average scent rating,[1],7
same,Pre Soak average scent rating,"0.02 wt % BENZ in water, scale 0 (no smell) to 10 (extremely smelly)",10
same,effect on malodor,0.02 wt % concentration,reduced the intensity of the malodor significantly
same,Post Dry average scent rating,[2],4
same,Post Wet average scent rating,[2],5
same,Water average scent rating,[2],5
same,Pre Soak average scent rating,[2],10
same,effect on malodor,0.04 wt % concentration,reduced the intensity of the malodor significantly
same,Post Dry average scent rating,[3],0
same,Post Wet average scent rating,[3],1
same,Water average scent rating,[3],2
same,Pre Soak average scent rating,[3],10
same,effect on malodor,"0.15 wt % concentration, once the shirt was dry",eradicated the malodor completely
